Species on record: Rattus norvegicus
Test: DrugMatrix - Regimen: Daily Repeat
Assay type: toxicity, organism-based, Sprague-Dawley
Set-up: regimen Daily Repeat, gender Male, age 6-8 weeks
Details: in vivo, po, route oral GAVAGE, vehicle .5 % CMC; for ABSOLUTE BASOPHIL / ABSOLUTE EOSINOPHIL / ABSOLUTE LYMPHOCYTE / ABSOLUTE MONOCYTE / ABSOLUTE SEGMENTED NEUTROPHIL / BASOPHIL / EOSINOPHIL / ERYTHROCYTE COUNT / HEMATOCRIT / HEMOGLOBIN / LEUKOCYTE COUNT / LYMPHOCYTE / MEAN CORPUSCULAR HEMOGLOBIN / MEAN CORPUSCULAR HEMOGLOBIN CONCENTRATION / MEAN CORPUSCULAR VOLUME / MONOCYTE / NEUTROPHIL / NUCLEATED RED BLOOD CELLS / PLATELET COUNT: tissue Blood; for ALANINE AMINOTRANSFERASE / ALBUMIN / ALKALINE PHOSPHATASE / ASPARTATE AMINOTRANSFERASE / BLOOD UREA NITROGEN / CARBON DIOXIDE / CHLORIDE / CHOLESTEROL / CREATINE PHOSPHOKINASE / CREATININE / GLUCOSE / LACTATE DEHYDROGENASE / LIPASE / PHOSPHORUS / POTASSIUM / SODIUM / TOTAL BILIRUBIN / TOTAL PROTEIN / URIC ACID: tissue Plasma
[1] = 0 mg/kg, 72 h, dose level Control, time 3 day
[2] = 0 mg/kg, 120 h, dose level Control, time 5 day
[3] = 25 mg/kg, 72 h, dose level Low, time 3 day

C[C@](O)(CS(=O)(=O)c1ccc(F)cc1)C(=O)Nc1ccc(C#N)c(C(F)(F)F)c1 [(R)-BICALUTAMIDE]
ABSOLUTE BASOPHIL [1]: 0 CELLS/uL
ABSOLUTE EOSINOPHIL [1]: 171.33 CELLS/uL
ABSOLUTE LYMPHOCYTE [1]: 13776.5 CELLS/uL
ABSOLUTE MONOCYTE [1]: 180.83 CELLS/uL
ABSOLUTE SEGMENTED NEUTROPHIL [1]: 1121.33 CELLS/uL
BASOPHIL [1]: 0%
EOSINOPHIL [1]: 1%
ERYTHROCYTE COUNT [1]: 5.56 x10E6/uL
HEMATOCRIT [1]: 34.75%
HEMOGLOBIN [1]: 13.68 G/DL
LEUKOCYTE COUNT [1]: 15.25 x10E3/uL
LYMPHOCYTE [1]: 90.17%
MEAN CORPUSCULAR HEMOGLOBIN [1]: 24.6 pg
MEAN CORPUSCULAR HEMOGLOBIN CONCENTRATION [1]: 39.4 G/DL
MEAN CORPUSCULAR VOLUME [1]: 62.48 fL
MONOCYTE [1]: 1.17%
NEUTROPHIL [1]: 7.67%
NUCLEATED RED BLOOD CELLS [1]: 0 /100WBC
PLATELET COUNT [1]: 1342 x10E3/uL
ALANINE AMINOTRANSFERASE [1]: 49.67 u/L
ALBUMIN [1]: 4.15 G/DL
ALKALINE PHOSPHATASE [1]: 346.83 u/L
ASPARTATE AMINOTRANSFERASE [1]: 108.17 u/L
BLOOD UREA NITROGEN [1]: 17.33 mg/dL
CARBON DIOXIDE [1]: 25 mmol/L
CHLORIDE [1]: 100.83 MEQ/L
CHOLESTEROL [1]: 66.83 mg/dL
CREATINE PHOSPHOKINASE [1]: 788 u/L
CREATININE [1]: 0.18 mg/dL
GLUCOSE [1]: 151.67 mg/dL
LACTATE DEHYDROGENASE [1]: 982.5 u/L
LIPASE [1]: 10.33 u/L
PHOSPHORUS [1]: 11.23 mg/dL
POTASSIUM [1]: 6.37 MEQ/L
SODIUM [1]: 141.02 MEQ/L
TOTAL BILIRUBIN [1]: 0.18 mg/dL
TOTAL PROTEIN [1]: 5.9 G/DL
URIC ACID [1]: 1.8 mg/dL
ABSOLUTE BASOPHIL [2]: 0 CELLS/uL
ABSOLUTE EOSINOPHIL [2]: 69 CELLS/uL
ABSOLUTE LYMPHOCYTE [2]: 13632.83 CELLS/uL
ABSOLUTE MONOCYTE [2]: 139.83 CELLS/uL
ABSOLUTE SEGMENTED NEUTROPHIL [2]: 1225 CELLS/uL
BASOPHIL [2]: 0%
EOSINOPHIL [2]: 0.33%
ERYTHROCYTE COUNT [2]: 5.52 x10E6/uL
HEMATOCRIT [2]: 33.98%
HEMOGLOBIN [2]: 13.22 G/DL
LEUKOCYTE COUNT [2]: 15.07 x10E3/uL
LYMPHOCYTE [2]: 90.83%
MEAN CORPUSCULAR HEMOGLOBIN [2]: 23.95 pg
MEAN CORPUSCULAR HEMOGLOBIN CONCENTRATION [2]: 38.9 G/DL
MEAN CORPUSCULAR VOLUME [2]: 61.53 fL
MONOCYTE [2]: 0.83%
NEUTROPHIL [2]: 8%
NUCLEATED RED BLOOD CELLS [2]: 0 /100WBC
PLATELET COUNT [2]: 1196 x10E3/uL
ALANINE AMINOTRANSFERASE [2]: 49.17 u/L
ALBUMIN [2]: 4.2 G/DL
ALKALINE PHOSPHATASE [2]: 352.33 u/L
ASPARTATE AMINOTRANSFERASE [2]: 89.67 u/L
BLOOD UREA NITROGEN [2]: 18 mg/dL
CARBON DIOXIDE [2]: 27.67 mmol/L
CHLORIDE [2]: 101 MEQ/L
CHOLESTEROL [2]: 72.83 mg/dL
CREATINE PHOSPHOKINASE [2]: 417.5 u/L
CREATININE [2]: 0.18 mg/dL
GLUCOSE [2]: 150.5 mg/dL
LACTATE DEHYDROGENASE [2]: 517.33 u/L
LIPASE [2]: 9 u/L
PHOSPHORUS [2]: 11.87 mg/dL
POTASSIUM [2]: 6.57 MEQ/L
SODIUM [2]: 143.62 MEQ/L
TOTAL BILIRUBIN [2]: 0.2 mg/dL
TOTAL PROTEIN [2]: 6.08 G/DL
URIC ACID [2]: 1.45 mg/dL
ABSOLUTE BASOPHIL [3]: 0 CELLS/uL
ABSOLUTE EOSINOPHIL [3]: 0 CELLS/uL
ABSOLUTE LYMPHOCYTE [3]: 11565 CELLS/uL
ABSOLUTE MONOCYTE [3]: 208.33 CELLS/uL
ABSOLUTE SEGMENTED NEUTROPHIL [3]: 926.67 CELLS/uL
BASOPHIL [3]: 0%
EOSINOPHIL [3]: 0%
ERYTHROCYTE COUNT [3]: 5.66 x10E6/uL
HEMATOCRIT [3]: 35.2%
HEMOGLOBIN [3]: 13.9 G/DL
LEUKOCYTE COUNT [3]: 12.7 x10E3/uL
LYMPHOCYTE [3]: 91%
MEAN CORPUSCULAR HEMOGLOBIN [3]: 24.57 pg
MEAN CORPUSCULAR HEMOGLOBIN CONCENTRATION [3]: 39.47 G/DL
MEAN CORPUSCULAR VOLUME [3]: 62.23 fL
MONOCYTE [3]: 1.67%
NEUTROPHIL [3]: 7.33%
NUCLEATED RED BLOOD CELLS [3]: 0.33 /100WBC
PLATELET COUNT [3]: 1165 x10E3/uL
ALANINE AMINOTRANSFERASE [3]: 46.33 u/L
ALBUMIN [3]: 4.1 G/DL
ALKALINE PHOSPHATASE [3]: 367.67 u/L
ASPARTATE AMINOTRANSFERASE [3]: 75.67 u/L
BLOOD UREA NITROGEN [3]: 14.33 mg/dL
CARBON DIOXIDE [3]: 27 mmol/L
CHLORIDE [3]: 102.67 MEQ/L
CHOLESTEROL [3]: 80.33 mg/dL
CREATINE PHOSPHOKINASE [3]: 447.67 u/L
CREATININE [3]: 0.21 mg/dL
GLUCOSE [3]: 137.67 mg/dL
LACTATE DEHYDROGENASE [3]: 242 u/L
LIPASE [3]: 10.67 u/L
PHOSPHORUS [3]: 11.97 mg/dL
POTASSIUM [3]: 6.21 MEQ/L
SODIUM [3]: 143.67 MEQ/L
TOTAL BILIRUBIN [3]: 0.2 mg/dL
TOTAL PROTEIN [3]: 5.87 G/DL
URIC ACID [3]: 1.37 mg/dL
